The subject of one test is U251 cells. Description: CellTiter-Glo cell viability, drugs alone or in combination, U251 cells. The conditions noted are these: 72 hrs. Background: Cellular ATP, detected with luciferase, serves as a proxy for viable cell number.
Another test has as its system Jurkat E6-1 cells. Put plainly: CellTiter-Glo cell viability, drugs alone or in combination, Jurkat E6-1 cells. The test is classed as cell-based, human. The conditions noted are these: Homo sapiens, read-out: (Bs)50, IC50 of drug B when used alone. The method, then:
(§1) isothiocyanates or derivatives thereof and DNA-effecting or influencing anticancer drugs, kinase-inhibiting anticancer drugs or hormonal anticancer drugs for endocrine therapy were administered separately or in combination to cancer cells. Cells were seeded into 384-well plates, and cultured for 24 hours in a CO2 incubator. Drugs were dissolved in DMSO and diluted to 9 concentration-gradients in 96 well plates, and then added to corresponding cells in 384-well plates, in which the concentrations of DMSO in 384 well plates were less than 1%. Triplicate wells were set for each concentration. After administration, the cells were cultured in the CO2 incubator for another 72 hrs, and afterwards, cell viability was tested by using CellTiter-Glo® reagent and luminescence detector. And IC50 values of each administration group were calculated.
(§2) CI value was calculated by the following formula: CI=(Am)50/(As)50+(Bm)50/(Bs)50,
(§3) Triplicate wells were set for each co-administration cell well.
(§4) After administration, cells were cultured in the CO2 incubator for another 72 hrs, and afterwards, cell viability was tested by using CellTiter-Glo® reagent and luminescence detector. Curves were plotted according to concentrations or logarithm concentrations of drug A vs cell inhibition rate in the corresponding cell well, and IC50, i.e. (Am)50 was calculated.
(§5) 9 concentration gradients of drug A were set (A1, A2, A3, A4, A5, A6, A7, A8, A9), and administrated alone to the corresponding cells in the 384 well plate, and triplicate wells were set for each administration concentration. After administration, the cells were cultured in the CO2 incubator for another 72 hrs, and afterwards, cell viability was tested by using CellTiter-Glo® reagent and luminescence detector. Curves were plotted according to concentration or logarithm concentration of drug A vs the cell inhibition rate in the corresponding cell well, and IC50, i.e. (As)50 was calculated.
(§6) After administration, the cells were cultured in the CO2 incubator for another 72 hrs, and afterwards, cell viability was tested by using CellTiter-Glo® reagent and luminescence detector.

A further test concerns OVCAR-3 cells. Description: CellTiter-Glo cell viability, drugs alone or in combination, OVCAR-3 cells.
Test [1] has as its system human kidney cancer cells 786-O. Description: CellTiter-Glo cell viability, drugs alone or in combination, 786-O cells. The settings on record: 786-0, 72 h, read-out: (Bs)50, IC50 of drug B when used alone, 786-O cells, 72 hrs.
For a further test, the system named is LNCaP cells. Description: CellTiter-Glo cell viability, drugs alone or in combination, LNCaP cells. It counts as cell-based, human. The method, then: Cell culture: Androgen-dependent human prostate cancer cells LNCaP, from Shanghai Medicilon Ltd., were placed in a 37° C., 5% CO2 cell incubator, and were cultured in RPMI1640 culture medium with 10% FBS. Androgen-independent human prostate cancer cells DU145, PC-3, from Shanghai Medicilon Ltd., were placed in a 37° C., 5% CO2 cell incubator, and were cultured in F12 culture medium with 10% FBS.
as §1, §2, §3, §4, §5, §6

Test [2] deals with pancreatic cancer cells PANC-1. Put plainly: CellTiter-Glo cell viability, drugs alone or in combination, PANC-1 cells. It counts as cell-based, human. Here is the method:
as §1, §2, §3, §4, §5, §6

For test [3], the system named is human leukemia HL-60 cells. Description: CellTiter-Glo cell viability, drugs alone or in combination, HL-60 cells. The settings on record: read-out: (Bs)50, IC50 of drug B when used alone. The test is classed as cell-based. The method, then: as §1, §2, §3, §4, §5, §6
A further test has as its system Saos-2 cells. Put plainly: CellTiter-Glo cell viability, drugs alone or in combination, Saos-2 cells. It counts as cell-based, human. The conditions noted are these: Homo sapiens, SAOS-2, 72 h, Saos-2 cells; 72 hrs; read-out: (Bs)50, IC50 of drug B when used alone. Here is the method:
as §1, §2, §3, §4, §5, §6

Test [4] has as its system Human breast cancer MDA-MB-231 cells. Put plainly: CellTiter-Glo cell viability, drugs alone or in combination, MDA-MB-231 cells. The conditions noted are these: Homo sapiens, MDA-MB-231, 72 h, read-out: (Bs)50, IC50 of drug B when used alone, MDA-MB-231 cells; 72 hrs.
Where [5] appears, read: Homo sapiens, U-251, 72 h, read-out: (Bs)50, IC50 of drug B when used alone, U251 cells.
The mark [6] stands for this setting: Homo sapiens, LNCaP, 72 h, LNCaP cells, 72 hrs, read-out: (As)50, IC50 of drug A when used alone.
Setting [7] is: Homo sapiens, PANC-1 cells, 72 hrs, read-out: (As)50, IC50 of drug A when used alone.
[8] abbreviates: LNCaP cells, 72 hrs, read-out: (As)50, IC50 of drug A when used alone.
Setting [9] is: PANC-1 cells, 72 hrs, read-out: (As)50, IC50 of drug A when used alone.

Where “and” joins values, the source holds several entries; their conditions need not be identical. Equal values may be shown once. Where a name gives a salt, the structure may show the parent alone. Read-outs that look alike come from different tables or passages of the source.

As a reminder, the IC50 is the concentration that inhibits the measured activity by half. For `O=NN(CCCl)C(=O)NC1CCCCC1` [Lomustine], the concentration for half-maximal inhibition (IC50) with U251 cells (setting [5]) amounted to 65.4 µM; in the test with U251 cells (read-out: (Bs)50, IC50 of drug B when used alone, U251 cells), 115 µM. With `C#CCC(Cc1cnc2nc(N)nc(N)c2n1)c1ccc(C(=O)N[C@@H](CCC(=O)O)C(=O)O)cc1` (stereo partly drawn) [Pralatrexate, reference compound], the IC50 in the test with Jurkat E6-1 cells (Jurkat E6.1, 72 h, Jurkat E6-1 cells, 72 hrs) turned out to be 0.0017 µM. In the case of `O=P1(N(CCCl)CCCl)NCCCO1` (stereo not drawn) [cyclophosphamide, Cyclophosphamide], the IC50 with OVCAR-3 cells (Homo sapiens, OVCAR-3, 72 h, read-out: (Bs)50, IC50 of drug B when used alone) is over 100 µM. On to `Cn1c(CCCC(=O)O)nc2cc(N(CCCl)CCCl)ccc21` [bendamustine, Bendamustine, reference compound], for which, in the test on Jurkat E6-1 cells (Jurkat E6.1, 72 h), the concentration for half-maximal inhibition (IC50) was over 100 µM.

As to `CNC(=O)c1cc(Oc2ccc(NC(=O)Nc3ccc(Cl)c(C(F)(F)F)c3)cc2)ccn1` [Sorafenib, sorafenib, reference compound], the IC50 in [1] was 6.99 µM.

`S=C=Nc1ccccc1` [Phenyl isothiocyanate, phenyl isothiocyanate]: the half-maximal inhibitory concentration (IC50) worked out at 43.6 µM with LNCaP cells (setting [6]) and 77.2 µM in [2] (setting [7]). Consider `Nc1nc(F)nc2c1ncn2[C@@H]1O[C@H](CO)[C@@H](O)[C@@H]1O` [fludarabine, Fludarabine], for which the IC50 in [3] (Homo sapiens, HL-60, 72 h) was determined as 1.57 µM. On to `CC[C@@]1(O)C(=O)OCc2c1cc1n(c2=O)Cc2cc3c(CN(C)C)c(O)ccc3nc2-1` [topotecan, Topotecan], for which the IC50 with OVCAR-3 cells (Homo sapiens, OVCAR-3, 72 h, read-out: (Bs)50, IC50 of drug B when used alone, OVCAR-3 cells, 72 hrs) is 0.0774 µM. In the case of arsenic trioxide, in [3] (72 hrs), the half-maximal inhibitory concentration (IC50) worked out at 2.75 µM. As to `S=C=NCCCc1ccccc1` [3-Phenylpropyl isothiocyanate, 3-phenyl propyl isothiocyanate], the half-inhibitory concentration (IC50) with LNCaP cells (setting [6]) was determined as 24.5 µM. On to `S=C=NCCCCc1ccccc1` [4-Phenbutyl isothiocyanate, 4-phenylbutyl isothiocyanate], for which the IC50 in the test on LNCaP cells (setting [6]) came out at 17.5 µM; in [2] (setting [7]), 26.9 µM.

Turning to `CC(=O)N[C@@H](CSC(=S)NCCc1ccccc1)C(=O)O` [phenethyl isothiocyanate-N-acetylcysteine adduct], the half-inhibitory concentration (IC50) in the test on LNCaP cells (setting [8]) turned out to be 16.4 µM; in test [2] (setting [9]), 28.6 µM.

In the case of `CC(C)C[C@H](NC(=O)[C@H](Cc1ccccc1)NC(=O)c1cnccn1)B(O)O` [bortezomib, reference compound], in the test on Saos-2 cells, the IC50 was 0.807 µM. Regarding `S=C=NCc1ccc(Cl)cc1` [4-chloro-benzyl isothiocyanate], the IC50 in the test with LNCaP cells (Homo sapiens, LNCaP, 72 h, read-out: (As)50, IC50 of drug A when used alone) is 17.3 µM; in [2] (Homo sapiens, PANC-1, 72 h, read-out: (As)50, IC50 of drug A when used alone) it was 34 µM; in the test on OVCAR-3 cells (Homo sapiens, OVCAR-3, 72 h, read-out: (As)50, IC50 of drug A when used alone), 18.2 µM.

As to `CC(=O)O[C@H]1C(=O)[C@@]2(C)[C@H]([C@H](OC(=O)c3ccccc3)[C@]3(O)C[C@H](OC(=O)[C@H](O)[C@@H](NC(=O)c4ccccc4)c4ccccc4)C(C)=C1C3(C)C)[C@]1(OC(C)=O)CO[C@@H]1C[C@@H]2O` [Paclitaxel, paclitaxel, reference compound], the IC50 in test [4] came to 0.0199 µM. Regarding `S=C=NCCCc1ccccc1` [Phenylpropyl isothiocyanate, phenylpropyl isothiocyanate], the IC50 is 22.9 µM with LNCaP cells (setting [8]) and 35.1 µM in test [2] (setting [7]). `C#Cc1cccc(Nc2ncnc3cc(OCCOC)c(OCCOC)cc23)c1` [erlotinib, reference compound]: the 50% inhibitory concentration (IC50) in test [2] (Homo sapiens, PANC-1, 72 h, PANC-1 cells, 72 hrs, read-out: (Bs)50, IC50 of drug B when used alone) is over 100 µM. Consider `S=C=NC(c1ccccc1)(c1ccccc1)c1ccccc1` [trityl isothiocyanate], for which the values for the half-maximal inhibitory concentration (IC50) (with LNCaP cells (setting [6]); in test [2] (setting [7])) were 238 µM and over 50 µM, respectively. `CO[C@H]1C[C@@H]2CC[C@@H](C)[C@@](O)(O2)C(=O)C(=O)N2CCCC[C@H]2C(=O)O[C@H]([C@H](C)C[C@@H]2CC[C@@H](OCCO)[C@H](OC)C2)CC(=O)[C@H](C)/C=C(\C)[C@@H](O)[C@@H](OC)C(=O)[C@H](C)C[C@H](C)/C=C/C=C/C=C/1C` [everolimus]: in the test with U251 cells (setting [5]), the IC50 amounted to 23.7 µM. With `CC[C@]1(O)C[C@H]2CN(CCc3c([nH]c4ccccc34)[C@@](C(=O)OC)(c3cc4c(cc3OC)N(C=O)[C@H]3[C@@](O)(C(=O)OC)[C@H](OC(C)=O)[C@]5(CC)C=CCN6CC[C@]43[C@@H]65)C2)C1` [vincristine sulfate], in test [3] (72 hrs), the IC50 came out at 0.0126 µM. For the compound `Cc1cn(-c2cc(NC(=O)c3ccc(C)c(Nc4nccc(-c5cccnc5)n4)c3)cc(C(F)(F)F)c2)cn1` [nilotinib], the IC50 in test [3] (Homo sapiens, HL-60, 72 h) is 3.9 µM. On to `COc1ccc(CN=C=S)cc1` [4-methoxy-benzyl isothiocyanate], for which the IC50 in test [2] (setting [7]) is 11.3 µM.

Regarding `COc1cccc2c1C(=O)c1c(O)c3c(c(O)c1C2=O)C[C@@](O)(C(C)=O)C[C@@H]3O[C@H]1C[C@H](N)[C@H](O)[C@H](C)O1` [daunorubicin, Daunorubicin], the half-inhibitory concentration (IC50) in test [3] (72 hrs) amounted to 0.236 µM. With `Cc1ccc(Nc2nccc(N(C)c3ccc4c(C)n(C)nc4c3)n2)cc1S(N)(=O)=O` [Pazopanib, pazopanib, reference compound], the IC50 in [1] came out at 199 µM.

Regarding `CCNC(=O)[C@@H]1CCCN1C(=O)[C@H](CCCNC(=N)N)NC(=O)[C@H](CC(C)C)NC(=O)[C@@H](CC(C)C)NC(=O)[C@H](Cc1ccc(O)cc1)NC(=O)[C@H](CO)NC(=O)[C@H](Cc1c[nH]c2ccccc12)NC(=O)[C@H](Cc1c[nH]cn1)NC(=O)[C@@H]1CCC(=O)N1` [leuprorelin, reference compound], in the test with LNCaP cells (LNCaP cells, 72 hrs, read-out: (Bs)50, IC50 of drug B when used alone), the IC50 amounted to 323 µM.

In the case of `S=C=NCCCCCCc1ccccc1` [6-Phenhexyl isothiocyanate, 6-phenyl-hexyl isothiocyanate], the IC50 in the test on LNCaP cells (setting [6]) is 18.8 µM; in test [2] (setting [7]), 30.9 µM.

In the case of `C[S+]([O-])CCCCN=C=S` (stereo not drawn) [sulforaphane, 1-isothiocyanate-4-methanesulfonyl butane], the IC50 worked out at 15.3 µM in the test on LNCaP cells (setting [6]) and 14.3 µM in test [2] (Homo sapiens, PANC-1, 72 h, PANC-1 cells, 72 hrs, read-out: (As)50, IC50 of drug A when used alone). For the compound `N.N.O=C([O-])C1(C(=O)[O-])CCC1.[Pt+2]` [carboplatin, Carboplatin], in the test on OVCAR-3 cells (read-out: (Bs)50, IC50 of drug B when used alone, OVCAR-3 cells, 72 hrs), the IC50 was 58.9 µM and 38.7 µM. `CC(N=C=S)c1ccccc1` [L-ethyl phenyl isothiocyanate]: the IC50 was 24 µM in test [2] (setting [9]) and 43.6 µM in the test on OVCAR-3 cells (read-out: (As)50, IC50 of drug A when used alone, OVCAR-3 cells, 72 hrs). Turning to `C=CCN=C=S` [allyl isothiocyanate], the half-inhibitory concentration (IC50) in test [2] (setting [7]) worked out at 116 µM. As for `C/C=C1\NC(=O)[C@H]2CSSCC/C=C/[C@H](CC(=O)N[C@H](C(C)C)C(=O)N2)OC(=O)[C@H](C(C)C)NC1=O` [Romidepsin, romidepsin, reference compound], in the test with Jurkat E6-1 cells (Jurkat E6-1 cells, 72 hrs), the half-maximal inhibitory concentration (IC50) amounted to 0.00201 µM.
